Measurements taken from PubChem BioAssay AID328 (DTP/NCI, 2004).
Values joined by “and” are separate entries in the source; they are usually repeats but may differ in a detail not shown here. Identical values can stand only once. Inconclusive results and toxic doses are left out.

System: BDF1 mice, P388 leukemia ip, median survival T/C
Assay: NCI In Vivo Anticancer Drug Screen. Data for tumor model P388 Leukemia (intraperitoneal) in B6D2F1 (BDF1) mice
Conditions: endpoint: median survival time, higher = longer survival
Method in brief: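 Compound-treated tumour-bearing mice were compared with vehicle-treated controls. Survival was recorded, and the value is the treated-group measurement divided by the control-group measurement (T/C).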

[1] = dose: 50.0 mg/kg/injection, schedule: Q01DX009 (ip), vehicle: saline with Tween-80
[2] = dose: 100.0 mg/kg/injection, schedule: Q04DX003 (ip), vehicle: saline with Tween-80
[3] = dose: 200.0 mg/kg/injection, schedule: Q04DX003 (ip), vehicle: saline with Tween-80
[4] = dose: 100.0 mg/kg/injection, schedule: Q04DX003 (ip), vehicle: Klucel (hydroxypropylcellulose) (HPC)
[5] = dose: 200.0 mg/kg/injection, schedule: Q04DX003 (ip), vehicle: Klucel (hydroxypropylcellulose) (HPC)
[6] = dose: 400.0 mg/kg/injection, schedule: Q04DX003 (ip), vehicle: Klucel (hydroxypropylcellulose) (HPC)
[7] = dose: 100.0 mg/kg/injection, schedule: Q01DX009 (ip), vehicle: Klucel (hydroxypropylcellulose) (HPC)
[8] = dose: 200.0 mg/kg/injection, schedule: Q01DX009 (ip), vehicle: Klucel (hydroxypropylcellulose) (HPC)
[9] = dose: 400.0 mg/kg/injection, schedule: Q01DX009 (ip), vehicle: Klucel (hydroxypropylcellulose) (HPC)

CC(=O)Oc1ccc(OC(C)=O)c2c1C(=O)C=CC2=O
T/C (dose: 0.09 mg/kg/injection, schedule: Q01DX009 (ip), vehicle: Klucel (hydroxypropylcellulose) (HPC)): 97 % of control | T/C (dose: 0.18 mg/kg/injection, schedule: Q01DX009 (ip), vehicle: Klucel (hydroxypropylcellulose) (HPC)): 97 % of control | T/C (dose: 0.37 mg/kg/injection, schedule: Q01DX009 (ip), vehicle: Klucel (hydroxypropylcellulose) (HPC)): 112 % of control | T/C (dose: 0.75 mg/kg/injection, schedule: Q01DX009 (ip), vehicle: Klucel (hydroxypropylcellulose) (HPC)): 118 % of control | T/C (dose: 1.5 mg/kg/injection, schedule: Q01DX009 (ip), vehicle: Klucel (hydroxypropylcellulose) (HPC)): 93 % of control and 98 % of control | T/C (dose: 3.0 mg/kg/injection, schedule: Q01DX009 (ip), vehicle: Klucel (hydroxypropylcellulose) (HPC)): 95 % of control | T/C (dose: 6.25 mg/kg/injection, schedule: Q01DX009 (ip), vehicle: Klucel (hydroxypropylcellulose) (HPC)): 91 % of control

CO[C@@H]1[C@H](O)CC[C@]2(CO2)[C@H]1[C@@]1(C)O[C@@H]1CC=C(C)C
T/C (dose: 3.13 mg/kg/injection, schedule: Q01DX009 (ip), vehicle: saline with Tween-80): 100 % of control | T/C (dose: 6.25 mg/kg/injection, schedule: Q01DX009 (ip), vehicle: saline with Tween-80): 97 % of control | T/C (dose: 12.5 mg/kg/injection, schedule: Q01DX009 (ip), vehicle: saline with Tween-80): 106 % of control | T/C (dose: 12.5 mg/kg/injection, schedule: Q01DX009 (ip), vehicle: saline): 98 % of control | T/C (dose: 37.5 mg/kg/injection, schedule: Q01DX009 (ip), vehicle: saline with Tween-80): 100 % of control

O=C(Nc1ccc(NC(=O)Nc2cccc(C3=NCCN3)c2)cc1)Nc1cccc(C2=NCCN2)c1
T/C (dose: 60.0 mg/kg/injection, schedule: Q01DX010 (ip), vehicle: saline): 165 % of control and 190 % of control | T/C (dose: 120.0 mg/kg/injection, schedule: Q01DX010 (ip), vehicle: saline): 160 % of control and 175 % of control | T/C (dose: 240.0 mg/kg/injection, schedule: Q01DX010 (ip), vehicle: saline): 175 % of control and 190 % of control | T/C (dose: 480.0 mg/kg/injection, schedule: Q01DX010 (ip), vehicle: saline): 250 % of control and 300 % of control

COc1cc2ccc3c(c2cc1OC)CN1CCc2cc4c(cc2C1C3)OCO4 (centres undefined)
T/C (dose: 44.0 mg/kg/injection, schedule: Q01DX009 (ip), vehicle: saline with Tween-80): 115 % of control | T/C [1]: 120 % of control | T/C (dose: 100.0 mg/kg/injection, schedule: Q04DX003 (ip), vehicle: saline): 118 % of control | T/C (dose: 200.0 mg/kg/injection, schedule: Q01DX009 (ip), vehicle: saline with Tween-80): 112 % of control | T/C (dose: 200.0 mg/kg/injection, schedule: Q04DX003 (ip), vehicle: saline): 100 % of control | T/C (dose: 400.0 mg/kg/injection, schedule: Q04DX003 (ip), vehicle: saline): 100 % of control

CCCCC[C@H](O)/C=C/[C@H]1[C@H](O)CC(=O)[C@@H]1C/C=C\CCCC(=O)O
T/C (dose: 50.0 mg/kg/injection, schedule: Q04DX002 (ip), vehicle: Klucel (hydroxypropylcellulose) (HPC)): 122 % of control | T/C (dose: 100.0 mg/kg/injection, schedule: Q04DX002 (ip), vehicle: Klucel (hydroxypropylcellulose) (HPC)): 105 % of control | T/C (dose: 200.0 mg/kg/injection, schedule: Q04DX002 (ip), vehicle: Klucel (hydroxypropylcellulose) (HPC)): 114 % of control | T/C (dose: 400.0 mg/kg/injection, schedule: Q04DX002 (ip), vehicle: Klucel (hydroxypropylcellulose) (HPC)): 114 % of control

CN(C)Nc1ncnc2nc[nH]c12
T/C (dose: 50.0 mg/kg/injection, schedule: Q01DX009 (ip), vehicle: saline): 95 % of control | T/C (dose: 100.0 mg/kg/injection, schedule: Q01DX009 (ip), vehicle: saline): 91 % of control | T/C [2]: 100 % of control | T/C [3]: 114 % of control

C=C1C(=O)O[C@H]2[C@H]1[C@H](OC(=O)/C(C)=C\C)CC(=C)[C@@H]1[C@H](O)[C@H]3O[C@@]3(C)[C@@]12O
T/C (dose: 5.0 mg/kg/injection, schedule: Q01DX010 (ip), vehicle: carboxymethylcellulose (CMC)): 104 % of control | T/C (dose: 10.0 mg/kg/injection, schedule: Q01DX010 (ip), vehicle: carboxymethylcellulose (CMC)): 104 % of control | T/C (dose: 20.0 mg/kg/injection, schedule: Q01DX010 (ip), vehicle: carboxymethylcellulose (CMC)): 113 % of control

CCN(CC)Cc1cc(Nc2cc(C)nc(Nc3ccc(Cl)c(Cl)c3)n2)ccc1OC
T/C (dose: 12.5 mg/kg/injection, schedule: Q04DX003 (ip), vehicle: saline with Tween-80): 110 % of control | T/C (dose: 25.0 mg/kg/injection, schedule: Q04DX003 (ip), vehicle: saline with Tween-80): 110 % of control | T/C (dose: 50.0 mg/kg/injection, schedule: Q04DX003 (ip), vehicle: saline with Tween-80): 110 % of control

C[C@]12CC[C@@H]3c4ccc(O)cc4CC[C@H]3[C@@H]1C[C@@H](O)[C@@H]2O
T/C (dose: 12.5 mg/kg/injection, schedule: Q01DX009 (ip), vehicle: Klucel (hydroxypropylcellulose) (HPC)): 90 % of control | T/C (dose: 25.0 mg/kg/injection, schedule: Q01DX009 (ip), vehicle: Klucel (hydroxypropylcellulose) (HPC)): 100 % of control | T/C (dose: 50.0 mg/kg/injection, schedule: Q01DX009 (ip), vehicle: Klucel (hydroxypropylcellulose) (HPC)): 109 % of control | T/C [4]: 104 % of control | T/C [5]: 104 % of control | T/C [6]: 100 % of control

Cc1ccc(S(=O)(=O)NC(=O)OC23COCN2COC3)cc1
T/C [1]: 116 % of control

N#CC(Br)C(N)=O (centres undefined)
T/C (dose: 2.5 mg/kg/injection, schedule: Q01DX009 (ip), vehicle: saline): 98 % of control | T/C (dose: 5.0 mg/kg/injection, schedule: Q01DX009 (ip), vehicle: saline): 120 % of control

CCN1C(=O)C(=O)c2ccccc21
T/C (dose: 75.0 mg/kg/injection, schedule: Q01DX009 (ip), vehicle: saline with Tween-80): 86 % of control

Cc1ccc(NC(=O)Oc2c(C)cc(Cl)cc2C)c([N+](=O)[O-])c1
T/C (dose: 25.0 mg/kg/injection, schedule: Q01DX009 (ip), vehicle: saline with Tween-80): 90 % of control | T/C [1]: 101 % of control

C[C@]12CC[C@@H]3c4ccc(O)cc4CC[C@H]3[C@@H]1C[C@H](O)C2
T/C [7]: 100 % of control | T/C [4]: 100 % of control | T/C [8]: 95 % of control | T/C [5]: 100 % of control | T/C [9]: 112 % of control | T/C [6]: 91 % of control

COC(=O)c1ccccc1NC(=O)NCCBr
T/C [4]: 90 % of control | T/C [5]: 100 % of control | T/C [6]: 104 % of control

CN(/N=N/c1nc[nH]c1C(N)=O)C(C)(C)C
T/C [7]: 117 % of control | T/C [8]: 108 % of control | T/C [9]: 88 % of control

CC(C)(C)NCc1cc(C(C)(C)C)cc(-c2ccc(Cl)cc2)c1O
T/C [1]: 99 % of control | T/C (dose: 100.0 mg/kg/injection, schedule: Q01DX009 (ip), vehicle: saline with Tween-80): 102 % of control

Cc1ccc(S(=O)CC(Cl)c2ccccc2)cc1 (centres undefined)
T/C (dose: 50.0 mg/kg/injection, schedule: Q01DX009 (ip), vehicle: other): 105 % of control | T/C (dose: 100.0 mg/kg/injection, schedule: Q01DX009 (ip), vehicle: other): 106 % of control | T/C (dose: 200.0 mg/kg/injection, schedule: Q01DX009 (ip), vehicle: other): 100 % of control

COc1ccc(C(=O)c2cccs2)cc1
T/C [2]: 100 % of control | T/C [3]: 100 % of control | T/C (dose: 400.0 mg/kg/injection, schedule: Q04DX003 (ip), vehicle: saline with Tween-80): 86 % of control

c1cn[nH]c1
T/C (dose: 4.0 mg/kg/injection, schedule: Q01DX010 (ip), vehicle: water): 100 % of control | T/C (dose: 8.0 mg/kg/injection, schedule: Q01DX010 (ip), vehicle: water): 90 % of control

COc1cc(C=O)cc(O)c1O
T/C (dose: 100.0 mg/kg/injection, schedule: Q01DX009 (ip), vehicle: saline sonified): 95 % of control | T/C (dose: 176.0 mg/kg/injection, schedule: Q01DX009 (ip), vehicle: saline sonified): 91 % of control | T/C (dose: 200.0 mg/kg/injection, schedule: Q01DX009 (ip), vehicle: saline sonified): 120 % of control | T/C (dose: 264.0 mg/kg/injection, schedule: Q01DX009 (ip), vehicle: saline sonified): 104 % of control
